Reference: US20200209247A1, “METHODS FOR IDENTIFYING MYELOMA TUMOR-INITIATING CELLS AND TARGETED THERAPY” (UNIVERSITY OF IOWA RESEARCH FOUNDATION, priority 2017, published 2020)

Tested on: RPMI-8226, RPMI-8226-R5 (a drug resistant cell line) cells
Type: cell-based, human
Conditions: treated in vitro for 72 h; RT-PCR
Experimental: Drug resistance is a critical characteristic of TICs^43. To examine whether CD24^+ cells show higher resistance to chemotherapeutic drugs, the soft agar clonogenic formation assay was employed to examine the response to multiple drugs. […] The ARP1 cells from the 1st passage were collected and re-plated in methylcellulose dishes. CD24^+ and CD24^− ARP1 MM cells in the 2nd passage were treated with bortezomib (2 and 10 nM) or carfilzomib (2.5 and 12.5 nM) or melphalan (2.5 and 12.5 μM) for 2 weeks. CD24^+ ARP1 (FIGS. 5A & 5B) or OCI-MY5 (FIGS. 5C & 5D) MM cells were more pronounced resistant (>2.5-fold) than CD24^− ARP1 or OCI-MY5 MM cells. To directly confirm whether CD24^+ population are enriched upon chemotherapy, we treated RPMI-8226, RPMI-8226-R5 (a drug resistant cell line) cells with bortezmib or melphalan in vitro for 72 h (data not shown).

N[C@@H](Cc1ccc(N(CCCl)CCCl)cc1)C(=O)O [melphalan]
expression of CD24 in survival cells compared to untreated MM cells: upregulated

CC(C)C[C@H](NC(=O)[C@H](Cc1ccccc1)NC(=O)c1cnccn1)B(O)O [bortezomib]
expression of CD24 in survival cells compared to untreated MM cells: upregulated
